“And” between values parts separate entries of the source, which are not always exact repeats. Equal values may be shown once. Inconclusive results and toxic doses are left out. How the source made its calls: active means survival T/C of 150% or more; inactive means T/C below 125% in these data.
System: BDF1 mice, P388 leukemia ip, median survival T/C
Assay: NCI In Vivo Anticancer Drug Screen. Data for tumor model P388 Leukemia (intraperitoneal) in B6D2F1 (BDF1) mice
Conditions: endpoint: median survival time, higher = longer survival
Method in brief: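 Compound-treated tumour-bearing mice were compared with vehicle-treated controls. Survival was recorded, and the value is the treated-group measurement divided by the control-group measurement (T/C).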

[1] = dose: 12.5 mg/kg/injection, schedule: Q01DX009 (ip), vehicle: Klucel (hydroxypropylcellulose) (HPC)
[2] = dose: 25.0 mg/kg/injection, schedule: Q01DX009 (ip), vehicle: Klucel (hydroxypropylcellulose) (HPC)
[3] = dose: 25.0 mg/kg/injection, schedule: Q04DX003 (ip), vehicle: Klucel (hydroxypropylcellulose) (HPC)
[4] = dose: 50.0 mg/kg/injection, schedule: Q01DX009 (ip), vehicle: Klucel (hydroxypropylcellulose) (HPC)
[5] = dose: 100.0 mg/kg/injection, schedule: Q04DX003 (ip), vehicle: saline with Tween-80
[6] = dose: 200.0 mg/kg/injection, schedule: Q04DX003 (ip), vehicle: saline with Tween-80
[7] = dose: 400.0 mg/kg/injection, schedule: Q04DX003 (ip), vehicle: saline with Tween-80

Measured: T/C

CCCC(=O)N(C)C(C)C(=O)OC1CC(=O)N(C)c2cc(cc(OC)c2Cl)C/C(C)=C/C=CC(OC)C2(O)CC(OC(=O)N2)C(C)C2OC12C (stereo unspecified)
inactive: dose: 0.1 micrograms/kg/injection, schedule: Q01DX009 (ip), vehicle: saline + alcohol 97 % of control | dose: 0.2 micrograms/kg/injection, schedule: Q01DX009 (ip), vehicle: saline + alcohol 93 % of control | dose: 0.4 micrograms/kg/injection, schedule: Q01DX009 (ip), vehicle: saline + alcohol 104 % of control | dose: 0.8 micrograms/kg/injection, schedule: Q01DX009 (ip), vehicle: saline + alcohol 96 % of control and 112 % of control | dose: 0.8 micrograms/kg/injection, schedule: Q01DX009 (ip), vehicle: saline 104 % of control | dose: 1.6 micrograms/kg/injection, schedule: Q01DX009 (ip), vehicle: saline + alcohol 102 % of control and 107 % of control | dose: 1.6 micrograms/kg/injection, schedule: Q01DX009 (ip), vehicle: saline 105 % of control | dose: 3.1 micrograms/kg/injection, schedule: Q01DX009 (ip), vehicle: saline + alcohol 88 % of control and 111 % of control | dose: 3.1 micrograms/kg/injection, schedule: Q01DX009 (ip), vehicle: saline 105 % of control | dose: 6.2 micrograms/kg/injection, schedule: Q01DX009 (ip), vehicle: saline + alcohol 92 % of control and 114 % of control | dose: 6.2 micrograms/kg/injection, schedule: Q01DX009 (ip), vehicle: saline 96 % of control | dose: 12.5 micrograms/kg/injection, schedule: Q01DX009 (ip), vehicle: saline + alcohol 113 % of control | dose: 12.5 micrograms/kg/injection, schedule: Q01DX009 (ip), vehicle: saline 110 % of control | dose: 25.0 micrograms/kg/injection, schedule: Q01DX009 (ip), vehicle: saline + alcohol 97 % of control | dose: 25.0 micrograms/kg/injection, schedule: Q01DX009 (ip), vehicle: saline 107 % of control | dose: 25.0 nanograms/kg/injection, schedule: Q## X009 (ip), vehicle: other 94 % of control | dose: 50.0 micrograms/kg/injection, schedule: Q01DX009 (ip), vehicle: saline + alcohol 105 % of control and 122 % of control | dose: 50.0 micrograms/kg/injection, schedule: Q01DX009 (ip), vehicle: saline 116 % of control | dose: 100.0 micrograms/kg/injection, schedule: Q01DX009 (ip), vehicle: saline + alcohol 111 % of control | dose: 200.0 micrograms/kg/injection, schedule: Q01DX009 (ip), vehicle: saline + alcohol 111 % of control and 117 % of control | dose: 200.0 nanograms/kg/injection, schedule: Q## X009 (ip), vehicle: other 88 % of control | dose: 400.0 nanograms/kg/injection, schedule: Q## X009 (ip), vehicle: other 102 % of control

O=C(O)CCc1ccccc1
inactive: dose: 75.0 mg/kg/injection, schedule: Q01DX009 (ip), vehicle: saline with Tween-80 95 % of control | dose: 100.0 mg/kg/injection, schedule: Q01DX001 (ip), vehicle: Klucel (hydroxypropylcellulose) (HPC) 104 % of control | dose: 150.0 mg/kg/injection, schedule: Q01DX009 (ip), vehicle: saline with Tween-80 109 % of control | dose: 200.0 mg/kg/injection, schedule: Q01DX001 (ip), vehicle: Klucel (hydroxypropylcellulose) (HPC) 100 % of control | dose: 300.0 mg/kg/injection, schedule: Q01DX009 (ip), vehicle: saline with Tween-80 100 % of control | dose: 400.0 mg/kg/injection, schedule: Q01DX001 (ip), vehicle: Klucel (hydroxypropylcellulose) (HPC) 100 % of control

Clc1ccc2c(c1)Nc1cc(Cl)ccc1C=C2
inactive: dose: 75.0 mg/kg/injection, schedule: Q01DX001 (ip), vehicle: saline with Tween-80 91 % of control | dose: 150.0 mg/kg/injection, schedule: Q01DX001 (ip), vehicle: saline with Tween-80 100 % of control | dose: 300.0 mg/kg/injection, schedule: Q01DX001 (ip), vehicle: saline with Tween-80 100 % of control

O=C1NC(C2CC3C=CC2C3)Nc2ccccc21 (stereo unspecified)
inactive: [1] 104 % of control | dose: 12.5 mg/kg/injection, schedule: Q04DX003 (ip), vehicle: Klucel (hydroxypropylcellulose) (HPC) 100 % of control | [2] 104 % of control | [3] 86 % of control | [4] 95 % of control

Cc1ccc(S(=O)(=O)N(C)SCl)cc1 (tested in a mixture with another compound)
inactive: dose: 100.0 mg/kg/injection, schedule: Q01DX009 (ip), vehicle: other 121 % of control

CC1C(=O)CCC2(C)C1CCC1C3CCC(O)C3(C)CCC12 (stereo unspecified)
inactive: [5] 95 % of control | [6] 100 % of control | [7] 91 % of control

NC(CSC(c1ccccc1)(c1ccccc1)c1ccc2ccccc2c1)C(=O)O (stereo unspecified)
inactive: dose: 12.5 mg/kg/injection, schedule: Q01DX009 (ip), vehicle: saline 89 % of control | dose: 45.0 mg/kg/injection, schedule: Q04DX003 (ip), vehicle: saline 86 % of control | dose: 200.0 mg/kg/injection, schedule: Q04DX003 (ip), vehicle: saline 95 % of control
active: dose: 2.75 mg/kg/injection, schedule: Q01DX009 (ip), vehicle: saline 173 % of control | dose: 4.12 mg/kg/injection, schedule: Q01DX009 (ip), vehicle: saline 227 % of control | dose: 6.25 mg/kg/injection, schedule: Q01DX009 (ip), vehicle: saline 250 % of control | [1] 216 % of control | [2] 333 % of control | [3] 210 % of control | dose: 29.0 mg/kg/injection, schedule: Q04DX003 (ip), vehicle: saline 200 % of control | [4] 200 % of control | dose: 50.0 mg/kg/injection, schedule: Q04DX003 (ip), vehicle: Klucel (hydroxypropylcellulose) (HPC) 200 % of control | dose: 50.0 mg/kg/injection, schedule: Q04DX003 (ip), vehicle: saline 300 % of control | dose: 66.0 mg/kg/injection, schedule: Q04DX003 (ip), vehicle: saline 272 % of control | dose: 100.0 mg/kg/injection, schedule: Q04DX003 (ip), vehicle: Klucel (hydroxypropylcellulose) (HPC) 300 % of control | dose: 100.0 mg/kg/injection, schedule: Q04DX003 (ip), vehicle: saline 300 % of control and 154 % of control

O=c1[nH]cnc2sc3c(c12)CCCC3
inactive: dose: 100.0 mg/kg/injection, schedule: Q04DX003 (ip), vehicle: saline sonified 95 % of control | dose: 200.0 mg/kg/injection, schedule: Q04DX003 (ip), vehicle: saline sonified 100 % of control | dose: 400.0 mg/kg/injection, schedule: Q04DX003 (ip), vehicle: saline sonified 100 % of control

CO[C@H](C(=O)[C@@H](O)[C@@H](C)O)[C@@H]1Cc2cc3cc(O)c(C)c(O)c3c(O)c2C(=O)[C@H]1O
inactive: dose: 0.12 mg/kg/injection, schedule: Q01DX009 (ip), vehicle: water 114 % of control | dose: 0.25 mg/kg/injection, schedule: Q01DX009 (ip), vehicle: water 107 % of control | dose: 0.5 mg/kg/injection, schedule: Q01DX009 (ip), vehicle: water 114 % of control | dose: 1.0 mg/kg/injection, schedule: Q01DX009 (ip), vehicle: water 99 % of control | dose: 2.0 mg/kg/injection, schedule: Q01DX009 (ip), vehicle: water 97 % of control | dose: 4.0 mg/kg/injection, schedule: Q01DX009 (ip), vehicle: water 99 % of control

CCCCCCCCCC(O)CCCCC (stereo unspecified)
active: dose: 100.0 mg/kg/injection, schedule: Q01DX009 (ip), vehicle: saline 170 % of control
inactive: dose: 20.0 mg/kg/injection, schedule: Q01DX009 (ip), vehicle: saline with Tween-80 100 % of control | dose: 25.0 mg/kg/injection, schedule: Q04DX003 (ip), vehicle: saline with Tween-80 95 % of control | dose: 45.0 mg/kg/injection, schedule: Q01DX009 (ip), vehicle: saline with Tween-80 100 % of control | dose: 50.0 mg/kg/injection, schedule: Q04DX003 (ip), vehicle: saline with Tween-80 108 % of control | dose: 90.0 mg/kg/injection, schedule: Q01DX009 (ip), vehicle: saline with Tween-80 104 % of control | dose: 100.0 mg/kg/injection, schedule: Q01DX009 (ip), vehicle: saline with Tween-80 113 % of control | [5] 100 % of control | dose: 135.0 mg/kg/injection, schedule: Q01DX009 (ip), vehicle: saline with Tween-80 95 % of control | dose: 200.0 mg/kg/injection, schedule: Q01DX009 (ip), vehicle: saline with Tween-80 108 % of control | [6] 95 % of control | dose: 400.0 mg/kg/injection, schedule: Q01DX009 (ip), vehicle: saline with Tween-80 113 % of control | [7] 100 % of control

CC12CCC(C=C1N1CCOCC1)C(C)(C)O2 (stereo unspecified)
inactive: dose: 50.0 mg/kg/injection, schedule: Q01DX005 (ip), vehicle: saline 114 % of control | dose: 100.0 mg/kg/injection, schedule: Q01DX005 (ip), vehicle: saline 122 % of control | dose: 200.0 mg/kg/injection, schedule: Q01DX005 (ip), vehicle: saline 111 % of control

Reference: PubChem BioAssay AID328 (DTP/NCI, 2004)
